# Laboratory results taken from patent US9977030B2, “Detection of shed CD31, diagnosis of atherothrombosis and autoimmune disorders, and methods for analyzing signaling pathways” (INSTITUT NATIONAL DE LA SANTE ET DE LA RECHERCHE MEDICALE …, priority 2008, dated 2018).
# System: CD31 signaling complex captured by PECAM1.2 (CD31 domain 6) beads
# Assay: CBA beads assessment of CD31 ITIM-dependent inhibitory pathway in Jurkat T cells (protein association and phosphorylation)
# Format: cell-based, human
# Experimental: Lysis of the cells. Jurkat T cells in log phase (10×10^6/ml, 1 ml) were either left untouched (negative control) or incubated with Na3VO4/H2O2 (sodium ortovanadate which is a tyrosin phosphatase inhibitor, positive control for tyrosin phosphorylation). In parallel, cells were stimulated either with CD3 or with CD3+ CD31 (domain 2, WM-59 antibody) by antibody-mediated crosslinking. After 20′ incubation at 37° C. in 5% CO2, the cells were lysed on ice for 30′ with a RIPA buffer containing a cocktail of protease and phosphatase inhibitors. Lysates were ultragentrifuged and supernatants were used either straightforward or aliquoted and stored at −20° for further analysis.
# Capture of the target protein on a solid support (1 hour at room temperature). This step follows the principle of imunoprecipitation but the signaling complex is nor denatured neither reduced, and no electrophoresis and/or blotting is carried out. As a solid support, CBA® functional beads previously coupled with an antibody directed to the membrane-proximal CD31 Ig-like domain 6 (clone MBC 78.2 also called PECAM1.2) were used following the manufacturer's instructions. An aliquot of 20 μl of lysate supernatant from each condition was incubated with 5 μl PECAM1.2-CBA® for 1 hour at room temperature.
# Detection of molecules associated with CD31 and of the phosphorylation state of CD31 ITIM 686. After washing of the beads once with CBA washing buffer (100 μl/tube), the beads were been aliquoted in 4 separate tubes and incubated with fluorescent antibodies directed to: • CD3-FITC; • CD28-PE; • CD31 domain 6 (PECAM1.2 FITC) • CD31 domain 2 (WM-59 PE) • phosphoTyrosin (clone 4G10 FITC); • phosphoSerin/Threonin (labelled with FITC) • CD31 phosphotyrosin 686 (rabbit polyclonal conjugated with alexafluor 488 antirabbit secondary antibody); or • SHP2-PE.
# After 1 hour incubation at room temperature in the dark, beads were washed once with 100 μl CBA washing buffer and more than 600 beads were acquired using an LSR II and DIVA® software.
# 4. Analysis. The median fluorescence in each fluorescent channel was recorded. The DIVA® software also calculated the % CV (variability coefficient), which can be considered as an equivalent of error bar value for repeated measure and allow statistical comparison between samples.
# [1] = Jurkat T cell lysate, 20' incubation, captured on PECAM1.2-CBA beads
substance,measurement,setting,value
sodium ortovanadate [Na3VO4/H2O2],MFI CD3,"CD3 associated with bead-captured CD31, Jurkat T cells",354 MFI
same,MFI CD28,"CD28 associated with bead-captured CD31, Jurkat T cells",3932 MFI
same,% shed CD31,[1],25%
same,CD31 dom2,[1],77 ng/mL
same,CD31 dom6,[1],103 ng/mL
same,MFI SHP-2,"SHP-2 associated with bead-captured CD31, Jurkat T cells",193 MFI
same,MFI CD31 pY686,"bead-captured CD31, Jurkat T cells",10667 MFI
same,MFI pSer/pThreo,"phosphoSerin/Threonin on bead-captured CD31 complex, Jurkat T cells",324 MFI
same,MFI pY (4G10),"total phosphoTyrosin on bead-captured CD31 complex, Jurkat T cells",1205 MFI
